In general, EC50 refers to the concentration needed to bring the measured effect to its halfway point. Lower therefore signals higher potency in that assay. What is called inhibition is the drop in the measured response relative to a control, in per cent.

One assay has as its target T1, full-length WT STING (Homo sapiens, UniProt Q86WV6, H232R).
T1 construct: AviTag (after gg linker) (C); HRV3C cleavage site (after gs linker) (C); HIS8 (C); made in house; host or cells: Trichoplusia ni (Hi-Five) insect cells infected with baculovirus (virus generated and amplified in Sf21 cells); used as a washed membrane preparation
Put plainly: 3H-cGAMP filtration binding assay (WT STING). The conditions noted are these: for EC50: competition with tritiated cGAMP, WT STING membrane. In outline: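 Competitive filtration binding of [3H]cGAMP (16 nM working stock) to T. ni membranes overexpressing full-length WT human STING, 60 min at RT in PBS. Bound radioactivity counted after GF/B filtration; 10-point 1:3 titration, EC50 from 4-parameter fit after control normalisation.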

The target of the next assay is T2, full-length HAQ STING (Homo sapiens, UniProt Q86WV6, G230A/H232R/R293Q/R71H).
T2 construct: AviTag (after GG linker) (C); HRV3C cleavage site (after GS linker) (C); HIS8 (C); made in house; host or cells: Trichoplusia ni (Hi-Five) insect cells infected with baculovirus (virus generated and amplified in Sf21 cells); used as a washed membrane preparation
As to the kind of experiment: 3H-cGAMP filtration binding assay (HAQ STING). To be noted: competition with tritiated cGAMP, HAQ STING membrane. In outline:
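Hi-Five (T. ni) membranes overexpressing the STING variant (2.2 ug/ml working) preincubated with compound 60 min at RT in PBS, then [3H]cGAMP (8 nM working stock) added for 60 min at RT. Bound radioactivity captured on GF/B filters and counted by scintillation; EC50 from 4-parameter fit of control-normalized activity.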

Assay [1] relates to secretion of interferon-beta from THP1 cells. As to the kind of experiment: IFN-β secretion in THP1 cell culture (5 h). The format is cell-based. To be noted: Homo sapiens, THP-1, 5 h, compound at 30 μM, 30 uM cGAMP = 100%, read-out: % Effect at 30 μM relative to 2′3′-cGAMP. In outline: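 Thawed THP1 cells (0.8×10^6/mL, RPMI with 0.5% FBS) exposed to compounds 1.5–30000 nM (0.3% DMSO) for 5 h at 37 °C. Supernatant IFN-β quantified by AlphaLISA. Percent effect normalised to 30 uM cGAMP and DMSO controls; EC50 from 4-parameter fit.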

T2 sequence (Q86WV6 with tags, fused parts or gaps R71H/G230A/H232R/R293Q): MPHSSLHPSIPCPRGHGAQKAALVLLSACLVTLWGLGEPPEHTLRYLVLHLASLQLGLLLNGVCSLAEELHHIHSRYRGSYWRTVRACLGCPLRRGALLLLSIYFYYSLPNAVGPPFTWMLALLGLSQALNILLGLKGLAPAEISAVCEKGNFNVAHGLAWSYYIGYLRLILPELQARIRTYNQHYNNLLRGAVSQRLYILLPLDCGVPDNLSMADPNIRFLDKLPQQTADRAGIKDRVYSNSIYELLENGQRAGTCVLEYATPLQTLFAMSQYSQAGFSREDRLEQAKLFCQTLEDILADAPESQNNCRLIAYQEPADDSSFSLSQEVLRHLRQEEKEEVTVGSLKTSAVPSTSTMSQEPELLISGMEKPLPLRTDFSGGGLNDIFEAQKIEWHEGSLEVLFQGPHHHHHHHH
T1 sequence (Q86WV6 with tags, fused parts or gaps H232R): as the sequence (Q86WV6 with tags, fused parts or gaps R71H/G230A/H232R/R293Q) above, with H71R, A230G, Q293R counted along it

`COc1cc2sc(C(=O)C[C@H](C)C(=O)O)cc2cc1CCCOc1nc2cc(C(=O)C[C@H](C)C(=O)O)sc2cc1OC` [Example 16, (S)-4-(5-(3-(2-((S)-3-carboxybutanoyl)-6-methoxybenzo [b]thiophen-5-yl)propoxy)-6-methoxythieno[3,2-b]pyridin-2-yl)-2-methyl-4-oxobutanoic acid]: the EC50 at full-length WT STING was found to be 51 nM; at full-length HAQ STING, 22 nM. Moreover, in assay [1], the activation at 30 µM turned out to be 70%.
For `COc1cc2sc(C(=O)CCC(=O)O)cc2cc1OCCOc1nc2cc(C(=O)C[C@H](C)C(=O)O)sc2cc1OC` [Example 17, (S)-4-(5-(2-((2-(3-carboxypropanoyl)-6-methoxybenzo [b]thiophen-5-yl)oxy)ethoxy)-6-methoxythieno[3,2-b]pyridin-2-yl)-2-methyl-4-oxobutanoic acid], the results for the concentration for a half-maximal effect (EC50) on full-length WT STING and on full-length HAQ STING were 299 nM and 52 nM, respectively. Also, the activation at 30 µM in assay [1] is 38%.
With `COc1cc2sc(C(=O)CCC(=O)O)cc2cc1OCCCOc1nc2cc(C(=O)C[C@H](C)C(=O)O)sc2cc1OC` [Example 18, (S)-4-(5-(3-((2-(3-carboxypropanoyl)-6-methoxybenzo [b]thiophen-5-yl)oxy)propoxy)-6-methoxythieno [3,2-b]pyridin-2-yl)-2-methyl-4-oxobutanoic acid], the figures for the concentration giving a half-maximal response (EC50) at full-length WT STING and on full-length HAQ STING were 8 nM and 2 nM, respectively. The activation at 30 µM in assay [1] worked out at 62%.
In the same order, the values of `COc1cc2sc(C(=O)C[C@H](C)C(=O)O)cc2nc1OCCOc1c(OC)cc2sc(C(=O)CCC(=O)O)cc2c1F` [Example 20, (S)-4-(5-(2-((2-(3-carboxypropanoyl)-4-fluoro-6-methoxybenzo[b]thiophen-5-yl)oxy)ethoxy)-6-methoxythieno[3,2-b]pyridin-2-yl)-2-methyl-4-oxobutanoic acid] are 24 nM, 7 nM and 63%.
As to `COc1cc2sc(C(=O)C[C@H](C)C(=O)O)cc2nc1OCCCOc1c(OC)cc2sc(C(=O)CCC(=O)O)cc2c1F` [Example 21, (S)-4-(5-(3-((2-(3-carboxypropanoyl)-4-fluoro-6-methoxybenzo[b]thiophen-5-yl)oxy)propoxy)-6-methoxythieno[3,2-b]pyridin-2-yl)-2-methyl-4-oxobutanoic acid], the EC50 stood at 5 nM at full-length WT STING and 1 nM on full-length HAQ STING. Moreover, the activation at 30 µM in assay [1] was 59%.
In the same order, the values of `COc1cc2sc(C(=O)CCC(=O)O)cc2nc1OCCCOc1c(OC)cc2sc(C(=O)C[C@H](C)C(=O)O)cc2c1F` [Example 23, (S)-4-(5-(3-((2-(3-carboxypropanoyl)-6-methoxythieno [3,2-b]pyridin-5-yl)oxy)propoxy)-4-fluoro-6-methoxybenzo[b]thiophen-2-yl)-2-methyl-4-oxobutanoic acid] are 2 nM, 1 nM and 83%.
As for `COc1cc2sc(C(=O)CCC#N)cc2cc1CCCc1cc2cc(C(=O)CCC(=O)O)sc2cc1OC` [Example 24, 4-(5-(3-(2-(3-cyanopropanoyl)-6-methoxybenzo[b]thiophen-5-yl)propyl)-6-methoxybenzo[b]thiophen-2-yl)-4-oxobutanoic acid], at full-length WT STING (at 20,000 nM compound), the inhibition at 20 µM came out at 39%. Besides, the concentration for a half-maximal effect (EC50) at full-length HAQ STING amounted to 17800 nM. Moreover, the activation at 30 µM in assay [1] came out at 150%.
Regarding `COc1cc2sc(C(=O)CCC(=O)O)cc2cc1CCCc1cc2cc(C(=O)CCC(=O)O)sc2cc1OC` [Example 25, 4,4′-(5,5′-(propane-1,3-diyl)bis(6-methoxybenzo[b]thiophene-5,2-diyl))bis(4-oxobutanoic acid)], the concentration giving a half-maximal response (EC50) was found to be 23 nM on full-length WT STING and 6 nM at full-length HAQ STING. Moreover, the activation at 30 µM in assay [1] was found to be 136%.
Turning to `COc1cc(CCCc2cc3sc(C(=O)CCC(=O)O)cc3cc2OC)c2cc(C(=O)CCC(=O)O)sc2c1` [Example 26, 4-(4-(3-(2-(3-carboxypropanoyl)-5-methoxbenzo[b]thiophen-6-yl)propyl)-6-methoxybenzo[b]thiophen-2-yl)-4-oxobutanoic acid], the EC50 on full-length WT STING is 19 nM; on full-length HAQ STING, 9 nM. Moreover, the activation at 30 µM in assay [1] was 129%.
`COc1cc2sc(C(=O)CCC(=O)O)nc2cc1CCCc1cc2nc(C(=O)CCC(=O)O)sc2cc1OC` [Example 27, 4,4′-(propane-1,3-diylbis(6-methoxybenzo[d]thiazole-5,2-diyl))bis(4-oxobutanoic acid)]: the EC50 on full-length WT STING is 362 nM; at full-length HAQ STING, 89 nM. The activation at 30 µM in assay [1] turned out to be 113%.
Taken in the same sequence, the figures for `Cc1cc2sc(C(=O)CCC(=O)O)cc2cc1CCCc1cc2cc(C(=O)CCC(=O)O)sc2cc1C` [Example 28, 4,4′-(propane-1,3-diylbis(6-methylbenzo[b]thiophene-5,2-diyl))bis(4-oxobutanoic acid)] were 112 nM, 46 nM and 116%.
Consider `COc1cc2sc(C(=O)CCC(=O)O)cc2cc1CCCc1nc2cc(C(=O)CCC(=O)O)sc2cc1OC` [Example 29, 4-(5-(3-(2-(3-carboxypropanoyl)-6-methoxybenzo [b]thiophen-5-yl)propyl)-6-methoxythieno[3,2-b]pyridin-2-yl)-4-oxobutanoic acid], for which the figures for the EC50 at full-length WT STING and at full-length HAQ STING were 44 nM and 8 nM, respectively. Further, in assay [1], the activation at 30 µM came to 107%.
Consider `COc1cc2sc(C(=O)CCC(N)=O)cc2cc1CCCc1cc2cc(C(=O)CCC(=O)O)sc2cc1OC` [Example 30, 4-(5-(3-(2-(4-amino-4-oxobutanoyl)-6-methoxybenzo[b]thiophen-5-yl)propyl)-6-methoxybenzo [b]thiophen-2-yl)-4-oxobutanoic acid], for which the 50% effective concentration (EC50) turned out to be 7520 nM at full-length WT STING and 1000 nM on full-length HAQ STING. The activation at 30 µM in assay [1] was 103%.
As to `COc1cc2sc(CC[C@H](C)C(=O)O)cc2cc1CCCc1cc2cc(C(=O)CCC(=O)O)sc2cc1OC` [Example 31, (S)-4-(5-(3-(2-(3-carboxybutyl)-6-methoxybenzo[b]thiophen-5-yl)propyl)-6-methoxybenzo[b]thiophen-2-yl)-4-oxobutanoic acid], the values for the EC50 at full-length WT STING and at full-length HAQ STING were 9480 nM and 3320 nM, respectively. Further, in assay [1], the activation at 30 µM was determined as 117%.
In the same order, the values of `COc1cc2sc(C(=O)CCC(=O)O)cc2cc1CCCOc1c(OC)cc2sc(C(=O)CCC(=O)O)cc2c1F` [Example 32, 4-(5-(3-((2-(3-carboxypropanoyl)-4-fluoro-6-methoxybenzo[b]thiophen-5-yl)oxy)propyl)-6-methoxybenzo [b]thiophen-2-yl)-4-oxobutanoic acid] are 9 nM, 4 nM and 117%.
Taken in the same sequence, the figures for `COc1cc2sc(C(=O)CCC(=O)O)cc2cc1CCCOc1c(OC)cc2sc(C(=O)C[C@H](C)C(=O)O)cc2c1F` [Example 33, (S)-4-(5-(3-(2-(3-carboxypropanoyl)-6-methoxybenzo [b]thiophen-5-yl)propoxy)-4-fluoro-6-methoxybenzo[b]thiophen-2-yl)-2-methyl-4-oxobutanoic acid] were 4 nM, 1 nM and 104%.

The record behind these values is US10793557B2, “Sting agonist compounds” (Merck Sharp & Dohme Corp., priority 2018, dated 2020).
